{"source": "patent US9550073B2", "about": "“Therapeutic agent for allergic rhinitis” (SBI Pharmaceuticals Co., Ltd., priority 2011, dated 2017)", "format_in_all_cases": "in vivo, human", "key": {"[1]": {"tested_on": "inflamed site of the nasal mucosa", "assay": "ALA-PDD: PpIX accumulation in the nasal mucosa after oral ALA hydrochloride", "conditions": "3 subject volunteers with allergic rhinitis; 20 mg/kg oral; 408 nm violet light after about 6 hours", "procedure": "(§1) To 3 subject volunteers with allergic rhinitis, 20 mg/kg of ALA hydrochloride was orally administered, and violet light of 408 nm was irradiated into the nasal cavity after about 6 hours using a bronchoscope enabling fluorescence observation (SAFE-3000 from Pentax) to perform ALA-PDD. […] The light of a red LED (light emitting diode) (FIG. 2) having a wavelength of 635 nm was irradiated on the inflamed site of the nasal mucosa until the red fluorescence could not be visually observed (FIG. 3). More specifically, the red LED light having a wavelength of 635 nm was irradiated for a certain period, followed by discontinuing the PDT irradiation; a bronchoscope (SAFE-3000 from Pentax) was inserted into the nasal cavity by interchanging with the irradiation device; and after observing red light, the PDT irradiation was again performed."}, "allergic rhinitis": {"tested_on": "allergic rhinitis", "assay": "ALA-PDT with 635 nm red LED on the inflamed site after oral ALA hydrochloride, subjects with allergic rhinitis", "conditions": "3 subjects; 20 mg/kg oral; 635 nm red LED until red fluorescence no longer visible", "procedure": "as §1"}, "[2]": {"tested_on": "allergic rhinitis due to pollinosis", "assay": "ALA-PDT with 635 nm red semiconductor laser into the entire nasal cavity after oral ALA hydrochloride, subjects with pollinosis", "conditions": "20 mg/kg oral", "procedure": "To a total 12 subjects with pollinosis, 7 adult males and 5 adult females, 20 mg/kg of ALA hydrochloride was orally administered, and 6 hours later, 100 J of red semiconductor laser light having a wavelength of 635 nm was irradiated into the nasal cavity for 6 minutes. As a result, symptoms of a severe runny nose and sneezing due to pollinosis of the 12 subjects disappeared ([…]) or abated (5 subjects), and these effects were maintained until at least 1 year after the irradiation."}, "[3]": {"tested_on": "allergic rhinitis due to pollinosis", "assay": "ALA-PDT with 635 nm red semiconductor laser after ALA hydrochloride in applied liquid form (transdermal, nasal cavity), subjects with pollinosis", "conditions": "5% by weight in saline on cotton in the nasal cavity for 1 hour, 100 J of 635 nm laser for 6 minutes", "procedure": "Then, it was examined whether or not, even when the ALA hydrochloride was administered in an applied liquid form, it could treat allergic rhinitis. A saline solution comprising 5% by weight of ALA hydrochloride sufficiently soaked in cotton was applied to the nasal cavity of 4 adult male subjects with pollinosis, and the soaked cotton was left in place for 1 hour before being removed. 100 J of red semiconductor laser light having a wavelength of 635 nm was intranasally irradiated for 6 minutes immediately after removing the soaked cotton on 3 of the subjects and 1 hour after removing the soaked cotton on the remaining 1 subject. As a result, symptoms of a severe runny nose and sneezing due to pollinosis of the 4 subjects disappeared for the 1 subject irradiated 1 hour thereafter and abated for the 3 subjects irradiated immediately thereafter. […] In addition, the treatment by the liquid form application is shown to be more excellent treatment than that by oral administration in view of cost effectiveness and time effectiveness because the direct application of an ALA hydrochloride solution around an inflamed site of the nasal mucosa can more decrease the amount of ALA hydrochloride administered than oral administration and PpIX accumulates in a short time in the inflamed site of the nasal mucosa."}, "[4]": {"conditions": "of 12 subjects with pollinosis, 6 hours later 100 J of 635 nm laser for 6 minutes"}}, "note": "Structures can show the parent of a compound that is named as a salt."}
{"smiles": "NCC(=O)CCC(=O)O", "note": "[ALA hydrochloride, 5-aminolevulinic acid]", "values": [{"measurement": "inflamed site of the nasal mucosa by which PpIX was taken up (ALA-PDD fluorescence)", "setting": "[1]", "value": "detected as red fluorescence"}, {"measurement": "course of symptoms of runny nose and sneezing thereafter", "setting": "allergic rhinitis", "value": "abated over several weeks"}, {"measurement": "symptoms of a severe runny nose and sneezing until several days after the irradiation", "setting": "allergic rhinitis", "value": "observed in the 3 subjects"}, {"measurement": "time for which the effects were maintained after the irradiation", "setting": "[2]; 12 subjects with pollinosis, 100 J of 635 nm laser for 6 minutes", "value": "at least 1 year"}, {"measurement": "subjects whose symptoms of a severe runny nose and sneezing abated", "setting": "[2]; [4]", "value": 5, "unit": "subjects"}, {"measurement": "subjects whose symptoms of a severe runny nose and sneezing disappeared", "setting": "[2]; [4]", "value": 3, "unit": "subjects"}, {"measurement": "symptoms of a severe runny nose and sneezing, irradiated 1 hour after removing the soaked cotton", "setting": "[3]; 1 subject", "value": "disappeared"}, {"measurement": "symptoms of a severe runny nose and sneezing, irradiated immediately after removing the soaked cotton", "setting": "[3]; 3 subjects", "value": "abated"}]}
